# Where two headings read alike, the source gives them in different places.
# Tests used:
# [1] = cited from earlier work
# [2] = Dissolution of tacrolimus compositions in 0.005% HPC, pH 4.5, USP <711> apparatus I, baskets at 100 rpm; type: physicochemical
# Experimental: Compositions A, B, and C were placed in 0.005% HPC, pH 4.5 according to USP <711>, apparatus I (2009), Baskets at 100 rpm (the dissolution vehicle). As an example of the different release profiles for the three compositions, the amount of medicament released from composition A was 92.07% at 120 min. The amount of medicament released from composition B was less than 10% at 360 min (excluded from graph due to scale). The amount of medicament released from Composition C was 43.55% at 120 min.
smiles,measurement,setting,value
CN1CCN(C2=Nc3cc(Cl)ccc3Nc3ccccc32)CC1 [clozapine],pka value,[1]; first of two printed pka values,3.98
same,pka value,[1]; second of two printed pka values,7.62
C=CC[C@@H]1/C=C(\C)C[C@H](C)C[C@H](OC)[C@H]2O[C@@](O)(C(=O)C(=O)N3CCCC[C@H]3C(=O)O[C@H](/C(C)=C/[C@@H]3CC[C@@H](O)[C@H](OC)C3)[C@H](C)[C@@H](O)CC1=O)[C@H](C)C[C@@H]2OC [tacrolimus],native solubility of tacrolimus in this dissolution vehicle,[2],approximately 43 % dissolved
